Experiments:
[1] = in vivo; cited from earlier work
[2] = in vivo; cited from earlier work; remark: listed apart in the source
[3] = pharmacokinetic studies: absorption and bioavailability; set-up: species or system man; details: in vivo
Source text: Absorbed isoquercetin interacts with ascorbate keeping it in the reduced state and, at the same time, is being protected by ascorbate by being kept in the oxidized state (Yamasaki, H. et al. (1997), Flavanoid-peroxidase reaction as a detoxification mechanism of plant cells against H2O2).

[4] = man; cited from earlier work
[5] = passage of the blood-brain barrier / entry into the brain; format: in vivo; details: isoquercetin given one hour before ascorbate
Source text: The second form of ascorbic acid, semidehydroascorbic acid (ascorbate free radical) participates in univalent redox systems that is in the antioxidant defense activity. See Bors, W. et al. (1995), Interaction of Flavonoids with Ascorbate and Determination of their Univalent Redox Potentials: a Pulse Radiolysis Study, Free Radical Biology and Medicine, vol. 19, No. 1, 45-52. This means semidehydroascorbic acid participates most likely in free radical scavenging activities. According to the article Gordon, M. H. (1996), Dietary Antioxidants in Disease Prevention, Natural Product Reports, pp. 265-273, “ascorbate appears to be the most important non-protein antioxidant in plasma” p. 270. […] See Agus, D. B. et al. (1997), Vitamin C crosses the blood-brain barrier in the oxidized form through the glucose transporters, J. Clin. Invest., 100 (11) 2842-2848. After entering the brain dehydroascorbic acid is reduced and retained as ascorbic acid.

Row | SMILES | crossing of the blood-brain barrier [1] | concentration in brain relative to blood serum [2] | absorption rate and bioavailability [3] | absorption compared with rutin and quercetin [4] | entry into the brain and reduction of dehydroascorbate [5]
1 | O=C1O[C@H]([C@@H](O)CO)C(O)=C1O [Ascorbic acid, ascorbic acid] | not able to cross blood-brain barrier | 10 times | – | – | –
2 | O=C1O[C@H]([C@@H](O)CO)C(=O)C1=O [dehydroascorbic acid] | readily enters the brain | – | – | – | –
3 | O=c1c(O[C@@H]2O[C@H](CO)[C@@H](O)[C@H](O)[C@H]2O)c(-c2ccc(O)c(O)c2)oc2cc(O)cc(O)c12 [isoquercetin, quercetin-3-O-glucoside] | – | – | excellent absorption rate and bioavailability | absorbed better than rutin and quercetin | enters the brain and reduces dehydroascorbate

Source: patent US6491948B1, “Composition comprising isoquercetin and ascorbic acid in a sustained release form” (Merck Patent GmbH, priority 1999, dated 2002)
